Reference: US8557559B2, “Self-dying recombinant microorganism for measuring soil and water contamination” (priority 2010, dated 2013)

Key:
Type in all cases: cell-based
[1] = test system: recombinant strain, Sphingomonas paucimobilis (SEQ ID NO. 1); experiment: Verification of substrate specificity: fluorescence reaction of recombinant strain in inorganic medium (LIVE/DEAD BacLight staining, micro-plate reader); conditions: inorganic medium with pyruvate; about 50 mg/L through about 500 mg/L; FIG. 2
Description: Phenanthrene was added to an inorganic medium including pyruvate as a carbon source, up to phenanthrene concentrations of about 50 mg/L through about 500 mg/L, the recombinant strain was inoculated, and a sample was taken every 24-hour and stained using LIVE/DEAD BacLight bacterial viability kit (Molecular Probes, L7012) and a fluorescence reaction was measured by a micro-plate reader.
A reaction of the recombinant strain with respect to an inorganic medium including hexane and hexadecane that are aliphatic hydrocarbon having the equivalent concentration, hexane concentrations being about 50 mg/L through about 500 mg/L and hexadecane concentrations being about 50 mg/L through about 500 mg/L, and a reaction of the recombinant strain with respect to an inorganic medium including toluene that is a monoaromatic hydrocarbon, toluene concentrations being about 1 mg/L through about 50 mg/L, were respectively measured for comparison.
The LIVE/DEAD BacLight bacterial viability kit is a dying scheme that labels, using a DNA-binding dye, DNA of a live microorganism with green fluorescence and labels, using […], DNA of dead microorganism with red fluorescence and thus, indicates a viability of microorganisms.
The reaction of the recombinant strain was expressed by a relative fluorescence intensity FL/FL0, that is, a value obtained by dividing a fluorescence reaction value FL of a recombinant strain exposed to a target contaminant by a fluorescence reaction value FL0 of a recombinant strain that is not exposed to the target contaminant. The relative fluorescence intensity FL/FL0 expresses the reaction of the recombinant strain, which is based on a concentration of contaminant, with a rate of decreasing fluorescence and thus, an error rate may be reduced during a test, and a concentration of toxicity may be expressed with a standardized fluorescence intensity value.

[2] = test system: recombinant strain, Sphingomonas paucimobilis (SEQ ID NO. 1); experiment: Performance of recombinant strain in model soil (Ottawa sand), CLSM fluorescence quantified with ImageJ; conditions: model soil contaminated 50 mg/kg to 1000 mg/kg; FIG. 3
Description: (§1) A confocal laser scanning microscope (CLSM) may measure a fluorescence reaction of the mixture of a soil sample and microorganisms to analyze phenanthrene in the soil sample. An image including measured green fluorescence and measured red fluorescence may be converted into a grayscale image after removing the measured red fluorescence from the image based on Adobe Photoshop CS4 (Adobe Systems, CA, USA). An integrated fluorescence intensity in an image of 254×254 pixels was quantified using a measure function of ImageJ program (ImageJ; Rasband, 1997-2009). The integrated fluorescence intensity may be a value obtained by dividing sum of illuminance of all the pixels by a number of the pixels in the image.
Ottawa sand was used as a model soil. The model soil was contaminated with phenanthrene up to concentrations from 50 mg/kg to 1000 mg/kg, an inorganic medium including pyruvate as a source of carbon was added, the inorganic medium of 10 mL per the model soil of 2 g, the recombinant strain was inoculated, and a sample was taken every 24-hour to measure a fluorescence response.
A fluorescence response was photographed by a CLSM to directly measure a mixture of the model soil, the liquid medium, and the recombinant strain, and the measured fluorescence reaction was quantified using an ImageJ program. […]

[3] = test system: recombinant strain, Sphingomonas paucimobilis (SEQ ID NO. 1); experiment: Performance of recombinant strain in real soil (M soil), CLSM fluorescence; conditions: 50 mg/kg to 1000 mg/kg, 24-hours, FIGS. 5 and 6
Description: as §1
Phenanthrene was added to soil that had not been contaminated with phenanthrene up to concentrations from 50 mg/kg to 1000 mg/kg, an inorganic medium was added, the inorganic medium of 10 mL per soil of 2 g, the recombinant strain was inoculated and cultivated for 24-hours, and a reaction was measured in the same manner as Example 3.

## CCCCCCCCCCCCCCCC [hexadecane]
[1]
  response of the recombinant strain (relative fluorescence intensity FL/FL0): may not respond

## CCCCCC [hexane]
[1]
  response of the recombinant strain (relative fluorescence intensity FL/FL0): may not respond

## c1ccc2c(c1)ccc1ccccc12 [phenanthrene]
[1]
  response of the recombinant strain (relative fluorescence intensity FL/FL0): death response
[2]
  response of the recombinant strain to phenanthrene in Ottawa sand: as phenanthrene concentrations increase, a number of live microorganisms decrease
[3]
  reaction of the recombinant strain to phenanthrene in real soil: significantly sensitive to phenanthrene concentrations
